Consider four compounds from ChEMBL document CHEMBL1201862, “PubChem BioAssay data set” (2004).

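Assay format: 96-well plates, 48-hour exposure. GI50 marks 50% less growth.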 Activity calls are given as the source filed them. Rule as the data show it: active = GI50 up to about 1.1 µM and inactive = higher.

Among the test systems are SNB-75; RPMI-8226; SF-268; SF-539; DMS-114; TK-10; IGROV-1; KM12; COLO 205; SK-MEL-28; A498; NCI-H23; OVCAR-8; LOX IMVI; HT-29; SR; SK-MEL-2; SK-MEL-5.
What all share (experiment): NCI-60 cell line screen, 48 h

As for `N#CCCn1[nH]c(=O)c(Cl)c(Cl)c1=O`, the GI50 was 13.2 µM (inactive) in the experiment on SNB-75; 11.5 µM (inactive) with RPMI-8226; 16.3 µM (inactive) in the experiment on SF-268; 23.3 µM (inactive) in the experiment on SF-539; 14.9 µM (inactive) with DMS-114; 35.8 µM (inactive) in the experiment on TK-10. For the same compound, the GI50 in the experiment with IGROV-1 was 17.1 µM (inactive); in the experiment on KM12, 14.5 µM (inactive); in the experiment with COLO 205, 22.2 µM (inactive); with SK-MEL-28, 15.8 µM (inactive); in the experiment on A498 it was 20.2 µM (inactive); with NCI-H23 it was 15.2 µM (inactive). Besides, the GI50 with OVCAR-8 is 15.7 µM (inactive); with LOX IMVI, 15 µM (inactive); in the experiment on HT-29, 11.8 µM (inactive); in the experiment with SR it was 14.7 µM (inactive); in the experiment with SK-MEL-2, 14.7 µM (inactive).

Regarding `COc1ccc(/C=C2\CCC(C)(CN(C)C)C2=O)cc1` (stereo unspecified), the GI50 in the experiment with SNB-75 was > 100 µM (inactive); in the experiment with RPMI-8226, 38 µM (inactive); in the experiment with SF-268, > 100 µM (inactive); in the experiment on SF-539, > 100 µM (inactive); in the experiment on DMS-114, 76 µM (inactive); in the experiment with TK-10, > 100 µM (inactive). The GI50 with IGROV-1, with KM12, with COLO 205, with SK-MEL-28, in the experiment with A498 and in the experiment with NCI-H23 was > 100 µM (inactive) each time. In addition, the GI50 is > 100 µM (inactive) in the experiment on OVCAR-8; > 100 µM (inactive) in the experiment on LOX IMVI; > 100 µM (inactive) in the experiment on HT-29; > 10 µM (inactive) in the experiment with SR; > 100 µM (inactive) in the experiment with SK-MEL-5; > 100 µM (inactive) with SK-MEL-2.

In the case of `COc1cc2c(c(OC)c1OC)-c1ccc(SC)c(=O)cc1[C@@H](NCc1ccc([N+](=O)[O-])cc1)CC2`, the GI50 in the experiment on SNB-75 is 0.00354 µM (active); in the experiment with RPMI-8226 it was 0.00349 µM (active); in the experiment with SF-268, 0.00676 µM (active); in the experiment on SF-539, 0.00271 µM (active); in the experiment on DMS-114 it was 0.00253 µM (active); in the experiment on TK-10, 0.0423 µM (active). For the same compound, the GI50 with IGROV-1 was 0.0371 µM (active); with KM12 it was 0.0034 µM (active); in the experiment with COLO 205, 0.00396 µM (active); in the experiment with SK-MEL-28, 0.00493 µM (active); in the experiment with A498 it was 0.00461 µM (active); in the experiment with NCI-H23, 0.00324 µM (active). The GI50 was 0.00578 µM (active) with OVCAR-8; 0.00506 µM (active) with LOX IMVI; 0.00331 µM (active) in the experiment with HT-29; 0.00148 µM (active) in the experiment with SR; 0.00421 µM (active) in the experiment on SK-MEL-5; 0.0113 µM (active) in the experiment with SK-MEL-2.

Turning to `c1ccc2cc(C3NCCc4nc[nH]c43)ccc2c1` (stereo unspecified), the GI50 was 46.2 µM (inactive) in the experiment with SNB-75; 45.5 µM (inactive) with RPMI-8226; > 100 µM (inactive) with SF-268; 89.1 µM (inactive) with SF-539; 35.6 µM (inactive) in the experiment on DMS-114; 28 µM (inactive) in the experiment on TK-10. The GI50 with IGROV-1 is > 100 µM (inactive); in the experiment on KM12, 17.3 µM (inactive); with COLO 205, 24.9 µM (inactive); in the experiment on SK-MEL-28, > 100 µM (inactive); in the experiment with A498, 25.9 µM (inactive); in the experiment with NCI-H23 it was > 100 µM (inactive). The GI50 in the experiment on OVCAR-8 was 89.7 µM (inactive); in the experiment on LOX IMVI it was 71.6 µM (inactive); in the experiment on HT-29, 41.7 µM (inactive); in the experiment with SR, 54.2 µM (inactive); in the experiment with SK-MEL-5 it was 19.1 µM (inactive); with SK-MEL-2, 72.8 µM (inactive).
